From patent US20170121678A1, “METHODS AND COMPOSITIONS TO STABILIZE DIFFERENT STEM CELL STATES” (UNIVERSITY OF WASHINGTON - CENTER COMMERCIALIZATION, priority 2014, published 2017)
Entries after “also recorded” stand apart in the source; their conditions may differ.

Assays:
Assay type in all cases: cell-based, human
[1] = tested on: Wnt signaling (BAR reporter) in Elf1 cells; test: BAR Wnt reporter activity in Elf1 reporter cells; conditions: for BAR reporter activity: naïve Elf1 cells, 72 h, IWP2 2 μM, XAV939 5 μM, siRNA 10 nM
Method: Elf1 cells grown in naïve media (2iL or 2iLIF) or primed media (AF) were infected with BAR reporter lentivirus and seeded onto MATRIGEL®-coated plates in MEF-CM with 10 μM Y-27632, and 1 μM Thiazovivin (ROCK inhibitors, Tocris). Transduced Elf cells were cultured for a week on MATRIGEL®, then passaged onto MEF plates for further selection and expansion. Elf1 naïve reporter cells were harvested as single cells via TRYPLE™ Express and FACS sorted for the population with both Venus and DsRed (Discosoma sp. Red fluorescent protein) positive signals. DsRed positive colonies of Elf1 primed reporter cells were manually dissected, transferred onto MEF plates, and the same positive selection was repeated one more round or two depending on the selection efficiency. Negative colonies were manually removed as a negative selection. Once the DsRed positive lines were isolated and stable lines established, the primed Elf1 reporter cells were passaged with dispase.
(§1) Wnt secretion and signaling were inhibited in naïve hESCs (Elf1, WIN1) by treatment with IWP2 (2 μM, Torcis) or XAV939 (5 μM, Sigma). Wnt pathway was activated in primed Elf1 AF reporter cells using a GSK3 inhibitor, CHIR99021 (72 hr, 10 μM, AxonMedChem). Both IWP2 and CHIR99021 were reconstituted in DMSO.
L and L-Wnt3A cells (ATCC) were cultured in 15 cm plates in 10% FBS/DMEM media until 90% confluent. Medium was collected every 48 hr for three batches. Biological activity of secreted Wnt3A in the individual batches of the conditional medium was confirmed in 293T-BAR reporter cells, then batches were pooled and filtered. Primed (Elf1 AF) reporter cells were grown on MATRIGEL® with 50% LCM or 50% Wnt3A-CM for 3 days prior taking bright field and fluorescent pictures.
Naïve Elf1 2iLIF cells were transfected in MATRIGEL® coated plates in MEF-CM supplemented with ROCK inhibitors (Torcis) using LIPOFECTAMINE™ RNAiMAX™ (Life Technologies). siRNA targeting NNMT (Hs-NNMT-8) was purchased from Qiagen as FLEXITUBE® siRNA premix, and siRNA targeting luciferase was used as control. siRNAs against NNMT and luciferase were used at 50 nM final concentration. Proteins and RNAs were extracted 72 hr after transfection. siRNA targeting beta-catenin (Invitrogen, CTNNBI, SILENCER® Select ID s437) and SILENCER® Select Negative Control 1 (Invitrogen) were transfected in naïve Elf1 2iLIF cells at 10 nM final concentration following a reverse transfection protocol. Bright field and fluorescence images were taken after 3 days. The efficacy of NNMT and beta-catenin siRNAs was confirmed by qPCR analysis.

naïve hESCs (WIN1, Elf1) = test: Seahorse mitostress protocol, OCR changes in response to FCCP; conditions: for OCR changes in response to FCCP: naïve hESCs (WIN1)
Method: Naïve and primed ESCs were seeded in their specific growth media onto 96-well Seahorse plates (Seahorse Bioscience) pre-coated with MATRIGEL® at 25×10^4 or 40×10^4 cells/well. Culture media were exchanged for base media (unbuffered DMEM (Sigma D5030) supplemented with sodium pyruvate (Gibco, 1 mM) and with 25 mM glucose (for mito stress assay), 25 mM glucose and 50 μM carnitine (for palmitate assay), or 2 mM glutamine (for glucose stress assay)) 1 hr prior to the assay and for the duration of the measurement. Substrates and selective inhibitors were added during the measurements to achieve final concentrations of glucose (2.5 mM), […] (FCCP, 300 nM-500 nM), oligomycin ([…]), antimycin (2.5 μM), rotenone (2.5 μM), palmitate (50 μM in BSA), BSA (bovine serum albumin) and ETO (50 μM).
The mitochondrial stress protocol starts with the measurement of baseline oxygen consumption rate (OCR) and extracellular acidification rate (ECAR) followed by measurement of OCR and ECAR changes in response to addition of oligomycin, FCCP and finally antimycin and rotenone.
Then palmitate assay starts with the measurement of baseline OCR followed by measurement of OCR changes in response to injection of palmitate or BSA (in negative controls) and ETO. The OCR and ECAR values were further normalized to the number of cells present in each well, quantified by Hoechst staining (H033342; Sigma-Aldrich) as measured using fluorescence at 355 nm excitation and 460 nm emission (ENVISION® 2104 Multilabel reader, Perkin Elmer). Changes in OCR and ECAR in response to substrates and inhibitors addition were defined as the maximal change after the chemical addition compared to the last OCR value before the addition.
as §1
WIN1 and Elf1 cells were seeded in Seahorse plates in naïve (WIN1, Elf1) or primed (WIN1 AF) conditions with or without Kynurenine (100 μM, Sigma) and mitostress protocol was performed 2 days later.
WIN1 cells were seeded in Seahorse plates 2 days prior change of media with media without L-methionine (Sigma 0422 supplemented with 0.584 gm/L L-glutamine) and addition of SAM (500 μM). Five hours later Seahorse mitostress protocol was performed.

[2] = tested on: NNMT, miR-372, miR-10a expression in naïve hESCs (Elf1); test: qPCR analysis of NNMT and microRNA expression; conditions: IWP2 2 μM, 72 hr
Method: Total RNA was extracted using TRIZOL® and subsequently analyzed by SYBR® green qPCR with the 7300 real time PCR system (Applied Biosystems) as well as TAQMAN® qPCR (Applied Biosystems).
qPCR of miRNAs was conducted using AQMAN®miRNA assays (Applied Biosystems). Raw Ct (threshold cycle) values for miRNAs were normalized to RNU66 (endogenous snoRNA, internal control). Linear expression values for all qPCR experiments were calculated using the 2 (−ΔCt) method. P-values were calculated using a student's t-test (*p<0.05, **p<0.01, ***p<0.001).
as §1
(§2) Naïve Elf1 2iLIF cells were transfected in MATRIGEL® coated plates in MEF-CM supplemented with ROCK inhibitors (Torcis) using LIPOFECTAMINE™ RNAiMAX™ (Life Technologies). siRNA targeting NNMT (Hs-NNMT-8) was purchased from Qiagen as FLEXITUBE® siRNA premix, and siRNA targeting luciferase was used as control. siRNAs against NNMT and luciferase were used at 50 nM final concentration. […] Bright field and fluorescence images were taken after 3 days. […]

[3] = tested on: histone methylation marks (H3K27me3, H3K9me3, H3K4me3, H3K9/K14Ac) in hESCs; test: Western blot analysis of histone marks; conditions: 1MNA 0.5 mM, 72 hr, primed hESCs (Elf1 AF), low L-methionine media
Method: Cellular extracts were prepared using a lysis buffer containing 20 mM Tris HCl (pH 7.5), 150 mM NaCl, 15% glycerol, 1% Triton, 25 mM (3-glycerolphosphate, 50 mM NaF, 10 mM sodium pyrophosphate, orthovanadate, PMSF), protease inhibitor cocktail (Roche) and 2% SDS. 25 U of BENZONASE® nuclease (EMD Chemicals) and 20 mM of DTT were added to the lysis buffer right before use. Protein concentrations were then determined by the method of Bradford. Fifteen micrograms of protein extracts were loaded, separated by 4-20% SDS-PAGE, and transferred to polyvinylidene difluoride membranes (Hybond-N+, Amersham Pharmacia Biotech). Membranes were blocked with 5% nonfat dry milk for 60 min at room temperature, and incubated overnight at 4° C. with primary antibody. […]
Naïve hESCs (Elf1 2iLIF) grown on MATRIGEL® were treated with 100 μM of STAT3 inhibitor (Selleckchem) for 6 hr or 24 hr and analyzed for methylation marks by Western blot and ChIP Seq. […]
as §2

[4] = primed hESCs (Elf1 AF), 3 days, CHIR99021 10 μM, 50% Wnt3A-CM

## Oc1nc(-c2ccc(C(F)(F)F)cc2)nc2c1CSCC2 [XAV939]
[1]
  BAR reporter activity: dramatically downregulated; also recorded: inhibit

## C[S+](CC[C@H](N)C(=O)[O-])C[C@H]1O[C@@H](n2cnc3c(N)ncnc32)[C@H](O)[C@@H]1O (stereo partly shown) [SAM, S-adenosyl methionine]
naïve hESCs (WIN1, Elf1); SAM 500 μM, 5 hr, media without methionine
  OCR changes in response to FCCP: reduces
naïve hESCs (WIN1, Elf1); high levels of SAM (FIG. 4K-4L)
  metabolic profile in naïve hESCs: induce a primed-like metabolic profile

## Cc1ccc2nc(NC(=O)CSc3nc4c(c(=O)n3-c3ccccc3)SCC4)sc2c1 [IWP2]
[1]
  BAR reporter activity: represses; also recorded: inhibit
naïve hESCs (WIN1, Elf1); IWP2 2 μM, 48 hr, naïve hESCs (Elf1, WIN1) and transitioning to primed (WIN1 AF)
  OCR changes after FCCP: decreases
[2]
  NNMT expression (qPCR): downregulates
  miR-372 expression (qPCR): downregulates

## C[n+]1cccc(C(N)=O)c1 [1MNA, 1-methylnicotinamide]
[3]
  H3K27me3 mark: reduces
[3]; listed as 1 MNA
  H3K27me3 mark: decreased

## Cc1c[nH]c(-c2cnc(NCCNc3ccc(C#N)cn3)nc2-c2ccc(Cl)cc2Cl)n1 [CHIR99021]
[1]; [4]
  BAR reporter: re-activation
  differentiation: induces differentiation

## Nc1ccccc1C(=O)CC(N)C(=O)O (stereo not shown) [kynurenine]
naïve hESCs (WIN1, Elf1); kynurenine 100 μM, 2 days
  OCR changes in response to FCCP: reduced
naïve hESCs (WIN1, Elf1); kynurenine added to the media (FIG. 4E)
  naïve to primed hESC metabolic switch: accelerated
